Read-outs that look alike come from different tables or passages of the source.
Legend:
[1] = phase I, cited from earlier work; for Cmax: read-out: Peak serum concentration (Cmax)
[2] = system: AKT^Ser473 phosphorylation in T47D-LTED cells; assay: Immunoblot of pAKT^Ser473, T47D-LTED; format: cell-based, human; conditions: CSS medium, 24 h; 5 µM
Protocol: Protein lysates were prepared using the RIPA lysis buffer system (ChemCruz #sc-24948) and quantified using the DC^TM Protein Assay reagents (Bio-Rad #5000112). Equal amounts of protein lysates were separated on 10% Criterion gels (Bio-Rad #3450112), transferred to PVDF membranes (Bio-Rad #1620177), blocked in TBST-5% milk and probed with primary antibodies listed in Supplementary Table 5, at the indicated dilutions. Membranes were incubated with HRP-conjugated anti-rabbit (CST #7074) or anti-mouse (CST #7076) secondary antibodies and visualized using chemiluminescent West Pico (Thermo Scientific #34580) or West Femto (Thermo Scientific #34096) reagents and a Li-Cor Odyssey® XF imager. Protein lysates from the MCF7AC1 xenograft model were obtained from a previous study. Quantitation of the protein bands signal intensity was performed using the NIH ImageJ image analysis software (https://imagej.nih.gov/ij///index.html). For the quantitation of the phospho protein levels, we first normalized total protein levels to β-actin loading control and used these values to normalize the phospho protein levels and compared change in protein expression levels relative to vehicle control normalized to 1.0. For the quantitation of total protein levels, we normalized the total protein levels to β-actin and compared change in expression levels relative to vehicle control normalized to 1.0. […]

MCF7AC1 cells = assay: Crystal violet cell viability / proliferation assay, MCF7AC1; format: cell-based, human; conditions: CSS medium, 48 h, 0 to 10 µM tested
Protocol: Fig. 1 Z-endoxifen (ENDX) effects on cell viability and apoptosis in estrogen deprived ERα+ /HER2- MCF7AC1 cells. a Cells grown in CSS medium were treated with vehicle control or the indicated ENDX concentrations for […]. Cell viability was assessed by the crystal violet assay. b Cells were co-treated with vehicle control or the indicated ENDX concentrations, IncuCyte Annexin V green and NucLight red reagents in CSS medium for 48 h. […] Data represents the mean of six wells per treatment performed as biological duplicates ± s.d. **p ≤ 0.01; ***p ≤ 0.001; ****p ≤ 0.0001 by one-way ANOVA.
(§1) Cells were plated at a density of 2000 cells per well. Cell viability of (i) vehicle or drug treated MCF7AC1 and T47D-LTED cells in CSS medium, (ii) siNT or siPKCβ-transfected MCF7AC1 cells in CSS medium and (iii) T47D cells in FBS versus CSS medium were analyzed by crystal violet staining assay after 6 days of treatment or siRNA transfection as previously described. Cell viability was calculated as the average absorbance of the drug treated cells divided by the average absorbance of the vehicle treated cells × 100.

T47D-LTED cells = assay: Crystal violet cell viability assay, T47D-LTED; format: cell-based, human; conditions: CSS media, six days; 5 µM
Protocol: as §1
Supplementary Figure 6. […] Cell viability is assessed by the crystal violet assay. b, MCF7AC1 cells were co-treated with vehicle control or 0.01, 0.1 and 5 µM MK-2206 and IncuCyte Annexin V green and NucLight rapid red reagents in CSS medi um for 48 hours. […]
Cells were plated at a density of 2000 cells per well. c, MCF7AC1 cells were treated with vehicle control or 0.01, 0.1 and 5 µM MK-2206 in CSS medium for 24 hours. […] Cell viability is assessed by the crystal violet assay. f, Parental T47D and T47D-LTED cells were processed for protein lysates. […] Cell viability is assessed by the crystal violet assay. h, T47D-LTED cells were co-treated with vehicle control or 0.01, 0.1 and 5 µM MK -2206 and IncuCyte Annexin V green and NucLight rapid red reagents in CSS medium for 48 hours. […] Cell viability is assessed by the crystal violet assay. […]

PKCβ1 = PKCβ1 (Homo sapiens, UniProt P05771); assay: Surface plasmon resonance (SPR) binding to immobilized PKCβ1; conditions: 100–8000 nM ENDX; no saturation, accurate KD could not be established
PKCβ1, sequence (P05771 whole entry): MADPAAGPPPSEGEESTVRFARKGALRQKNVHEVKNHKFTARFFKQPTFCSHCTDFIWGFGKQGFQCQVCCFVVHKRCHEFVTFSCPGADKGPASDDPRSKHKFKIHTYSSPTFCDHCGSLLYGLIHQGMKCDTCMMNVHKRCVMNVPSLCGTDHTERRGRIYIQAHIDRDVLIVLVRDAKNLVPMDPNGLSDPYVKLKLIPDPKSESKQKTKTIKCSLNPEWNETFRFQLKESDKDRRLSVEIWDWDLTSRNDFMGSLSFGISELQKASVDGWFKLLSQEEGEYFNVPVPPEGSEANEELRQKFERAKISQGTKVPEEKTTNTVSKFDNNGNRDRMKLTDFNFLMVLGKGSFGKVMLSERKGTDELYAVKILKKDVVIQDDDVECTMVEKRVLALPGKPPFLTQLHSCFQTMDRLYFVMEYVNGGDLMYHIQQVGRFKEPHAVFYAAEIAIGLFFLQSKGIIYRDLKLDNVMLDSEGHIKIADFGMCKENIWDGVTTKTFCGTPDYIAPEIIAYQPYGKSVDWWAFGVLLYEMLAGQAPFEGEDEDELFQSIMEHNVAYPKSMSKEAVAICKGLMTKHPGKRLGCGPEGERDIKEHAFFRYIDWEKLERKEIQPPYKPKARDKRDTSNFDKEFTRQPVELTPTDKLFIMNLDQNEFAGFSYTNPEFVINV
Protocol: Binding assays were performed at 25 °C on a Biacore T200 biosensor (GE healthcare). Purified PKCβ1 protein were immobilized on a CM5 S sensor chip using amino coupling and immobilization buffer (10 mM HEPES, 150 mM NaCl, pH 7.4, P20 0.01% (w/w)) and acetate pH 5.0 at a flow rate of 10 µL/min and reaching 10,000-12,000 resonance units (RUs). ENDX at concentrations ranging from 0–8000 nM in phosphate buffer (Gibco) with 2% DMSO (v/v) and 0.01% (w/w) P20 were run over the chips at a flow rate of 50 µl/min for 30 s. Binding kinetics were derived from sensograms using Biacore BIA evaluation software (GE). Sensograms were subtracted for background contributions, and affinity constants were derived using a steady-state affinity fitting of a 1:1 interaction model.

For `CC/C(=C(\c1ccc(O)cc1)c1ccc(OCCNC)cc1)c1ccccc1` [ENDX, Z-endoxifen], the “Peak serum concentration (Cmax)” value ([1]; Day 28, 80 mg/day) is listed as 0.913 ± 0.142 µg/mL, the Cmax ([1]; Day 28, 80 mg/day) is listed as 2.44 ± 0.38 µM and the “Peak serum concentration (Cmax)” value ([1]; Day 28, 200 mg/day) is listed as 1.641 ± 0.83 µg/mL. For the same compound, the Cmax ([1]; Day 28, 200 mg/day) was 4.39 ± 2.22 µM, the “Effect on AKT^Ser473 phosphorylation” value [2] was “attenuated AKT^Ser473 phosphorylation” and the “Concentrations that significantly reduced cell viability” value (MCF7AC1 cells) was no less than 2.5 µM. The Effect on growth (T47D-LTED cells) was “inhibited growth” and the “Binding to PKCβ1 by SPR” value (PKCβ1) was “binds PKCβ1”.
